Data as given in patent publication US8236833B2, “Biphenyl derivatives as modulators of voltage gated ion channels” (Vertex Pharmaceuticals Incorporated, priority 2005, dated 2012).
Where two headings read alike, the source gives them in different places.

Tests used:
neuropathic pain = details: in vivo; cited from earlier work
[1] = system: voltage-gated sodium ion channels; experiment: Assays for detecting and measuring NaV inhibition properties of compounds (Table 3 activity data; the specific assay and subtype are not stated); format: cell-based
NaV1.9 = NaV1.9 (Homo sapiens, UniProt Q9UI33); details: read-out: TTX IC50; cited from earlier work
NaV1.1 = NaV1.1 (Homo sapiens, UniProt P35498); details: read-out: TTX IC50; cited from earlier work
NaV1.6 = NaV1.6 (Homo sapiens, UniProt Q9UQD0); details: read-out: TTX IC50; cited from earlier work
NaV1.8 = NaV1.8 (Homo sapiens, UniProt Q9Y5Y9); details: read-out: TTX IC50; cited from earlier work
NaV1.3 = NaV1.3 (Homo sapiens, UniProt Q9NY46); details: read-out: TTX IC50; cited from earlier work
[2] = activity data for selected compounds, NaV subtype not stated, read-out: IC50

NaV1.9, sequence (Q9UI33 whole entry, looked up): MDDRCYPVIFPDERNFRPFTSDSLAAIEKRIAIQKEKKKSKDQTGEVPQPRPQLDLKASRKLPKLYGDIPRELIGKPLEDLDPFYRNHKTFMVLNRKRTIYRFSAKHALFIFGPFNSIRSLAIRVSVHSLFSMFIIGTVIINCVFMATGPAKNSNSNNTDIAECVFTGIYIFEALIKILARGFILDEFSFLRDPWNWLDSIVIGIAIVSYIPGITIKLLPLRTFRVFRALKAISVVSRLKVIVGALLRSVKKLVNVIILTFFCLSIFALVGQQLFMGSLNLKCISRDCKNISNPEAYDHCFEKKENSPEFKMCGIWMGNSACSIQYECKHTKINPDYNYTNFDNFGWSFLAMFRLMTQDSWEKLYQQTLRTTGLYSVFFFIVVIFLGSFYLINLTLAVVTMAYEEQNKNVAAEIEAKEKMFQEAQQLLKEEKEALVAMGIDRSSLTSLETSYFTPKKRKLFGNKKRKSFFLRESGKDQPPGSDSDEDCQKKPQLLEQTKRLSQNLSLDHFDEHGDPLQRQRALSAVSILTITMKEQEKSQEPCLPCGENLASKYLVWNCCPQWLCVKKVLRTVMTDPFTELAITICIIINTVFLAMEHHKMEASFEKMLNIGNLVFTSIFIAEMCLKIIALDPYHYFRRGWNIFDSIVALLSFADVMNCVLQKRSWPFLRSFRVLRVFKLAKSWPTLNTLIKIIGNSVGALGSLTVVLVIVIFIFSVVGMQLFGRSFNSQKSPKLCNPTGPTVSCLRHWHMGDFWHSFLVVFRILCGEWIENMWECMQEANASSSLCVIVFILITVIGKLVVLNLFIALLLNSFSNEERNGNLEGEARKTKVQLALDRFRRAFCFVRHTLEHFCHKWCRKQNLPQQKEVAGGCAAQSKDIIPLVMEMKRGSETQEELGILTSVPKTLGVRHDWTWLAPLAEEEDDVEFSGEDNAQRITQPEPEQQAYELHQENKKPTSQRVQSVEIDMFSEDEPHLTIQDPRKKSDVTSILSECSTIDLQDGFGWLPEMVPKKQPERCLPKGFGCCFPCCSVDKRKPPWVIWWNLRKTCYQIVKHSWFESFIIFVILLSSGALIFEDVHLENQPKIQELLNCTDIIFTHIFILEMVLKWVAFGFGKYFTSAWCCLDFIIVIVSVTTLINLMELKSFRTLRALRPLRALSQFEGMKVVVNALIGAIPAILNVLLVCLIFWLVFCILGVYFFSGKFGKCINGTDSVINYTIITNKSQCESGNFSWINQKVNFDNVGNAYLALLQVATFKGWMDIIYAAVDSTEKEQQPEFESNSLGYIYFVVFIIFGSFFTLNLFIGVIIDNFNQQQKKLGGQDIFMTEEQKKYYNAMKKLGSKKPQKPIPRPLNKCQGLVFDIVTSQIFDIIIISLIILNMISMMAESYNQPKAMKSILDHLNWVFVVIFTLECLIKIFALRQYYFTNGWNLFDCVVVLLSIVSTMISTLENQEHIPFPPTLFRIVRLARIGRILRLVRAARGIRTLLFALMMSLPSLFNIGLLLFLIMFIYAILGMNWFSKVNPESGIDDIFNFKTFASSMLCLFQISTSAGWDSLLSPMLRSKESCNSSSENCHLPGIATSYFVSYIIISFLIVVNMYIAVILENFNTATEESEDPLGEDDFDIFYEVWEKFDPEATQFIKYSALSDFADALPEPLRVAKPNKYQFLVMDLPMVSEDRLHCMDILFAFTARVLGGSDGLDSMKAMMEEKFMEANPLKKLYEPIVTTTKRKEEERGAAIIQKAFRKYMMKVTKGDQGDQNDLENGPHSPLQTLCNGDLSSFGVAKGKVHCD
NaV1.8, sequence (Q9Y5Y9 whole entry, looked up): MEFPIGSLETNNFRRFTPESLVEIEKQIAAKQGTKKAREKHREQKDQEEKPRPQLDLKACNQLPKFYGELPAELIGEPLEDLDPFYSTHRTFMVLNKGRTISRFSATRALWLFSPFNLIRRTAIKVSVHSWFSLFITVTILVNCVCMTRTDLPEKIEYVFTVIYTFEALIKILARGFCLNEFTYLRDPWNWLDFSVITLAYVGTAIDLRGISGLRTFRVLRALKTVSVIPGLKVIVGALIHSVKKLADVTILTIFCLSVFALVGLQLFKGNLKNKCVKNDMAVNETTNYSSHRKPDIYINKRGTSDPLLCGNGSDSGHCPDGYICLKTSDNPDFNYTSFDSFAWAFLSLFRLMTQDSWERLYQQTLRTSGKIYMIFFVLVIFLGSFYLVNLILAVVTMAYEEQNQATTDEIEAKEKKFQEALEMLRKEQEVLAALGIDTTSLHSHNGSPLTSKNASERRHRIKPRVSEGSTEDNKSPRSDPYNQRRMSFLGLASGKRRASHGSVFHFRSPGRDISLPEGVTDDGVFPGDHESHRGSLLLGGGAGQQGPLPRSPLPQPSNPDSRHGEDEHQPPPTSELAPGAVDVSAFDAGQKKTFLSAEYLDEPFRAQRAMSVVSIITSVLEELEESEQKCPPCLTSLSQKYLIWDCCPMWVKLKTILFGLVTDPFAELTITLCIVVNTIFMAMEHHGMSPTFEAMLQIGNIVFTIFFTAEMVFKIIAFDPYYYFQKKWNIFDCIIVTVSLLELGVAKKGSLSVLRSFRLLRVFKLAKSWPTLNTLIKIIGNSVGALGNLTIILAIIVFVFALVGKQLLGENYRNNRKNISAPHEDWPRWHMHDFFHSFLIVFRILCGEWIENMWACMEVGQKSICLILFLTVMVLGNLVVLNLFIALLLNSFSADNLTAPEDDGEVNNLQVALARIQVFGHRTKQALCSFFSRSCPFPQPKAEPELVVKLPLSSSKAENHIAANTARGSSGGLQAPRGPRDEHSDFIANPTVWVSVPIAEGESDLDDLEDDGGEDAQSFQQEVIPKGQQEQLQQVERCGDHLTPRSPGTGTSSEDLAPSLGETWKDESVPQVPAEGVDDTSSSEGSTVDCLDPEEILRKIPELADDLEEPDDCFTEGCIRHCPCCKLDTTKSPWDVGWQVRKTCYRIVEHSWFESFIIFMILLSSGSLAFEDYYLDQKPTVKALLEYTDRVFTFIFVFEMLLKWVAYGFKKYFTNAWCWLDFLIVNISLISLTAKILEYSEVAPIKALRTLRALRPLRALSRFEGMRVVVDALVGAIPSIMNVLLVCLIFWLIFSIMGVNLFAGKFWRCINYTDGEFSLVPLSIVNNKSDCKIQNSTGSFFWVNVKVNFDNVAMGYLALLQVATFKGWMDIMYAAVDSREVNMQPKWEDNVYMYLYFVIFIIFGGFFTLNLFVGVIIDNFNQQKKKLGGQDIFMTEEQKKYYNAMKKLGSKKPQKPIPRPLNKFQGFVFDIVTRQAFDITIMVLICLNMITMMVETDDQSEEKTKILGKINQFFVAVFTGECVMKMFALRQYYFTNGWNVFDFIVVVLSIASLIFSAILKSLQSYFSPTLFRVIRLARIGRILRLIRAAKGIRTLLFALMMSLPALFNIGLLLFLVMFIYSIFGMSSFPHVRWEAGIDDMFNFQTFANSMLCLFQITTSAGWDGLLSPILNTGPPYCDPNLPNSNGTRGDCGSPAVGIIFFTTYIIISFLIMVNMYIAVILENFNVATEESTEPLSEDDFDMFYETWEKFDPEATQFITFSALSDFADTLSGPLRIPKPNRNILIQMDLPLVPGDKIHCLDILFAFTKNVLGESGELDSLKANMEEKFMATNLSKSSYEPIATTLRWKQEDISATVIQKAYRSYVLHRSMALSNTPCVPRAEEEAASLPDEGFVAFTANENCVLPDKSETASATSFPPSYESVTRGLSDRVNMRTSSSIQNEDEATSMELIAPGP

NCC1(CC(=O)O)CCCCC1 [Gabapentin]
share of patients in which it works (neuropathic pain): 60%

O=C(Nc1ccc(-c2ccc(S(=O)(=O)Nc3nccs3)cc2)cc1)c1ccccc1F [Compound 3]
IC50 [1]: 1000 to 5000 nM

O=C(COc1cccc(Cl)c1)Nc1ccc(-c2ccc(S(=O)(=O)Nc3nccs3)cc2)cc1 [Compound 5, 2-(3-Chloro-phenoxy)-N-[4′-(thiazol-2-ylsulfamoyl)-biphenyl-4-yl]-acetamide]
IC50 [1, 2]: 1000 to 5000 nM

O=C(COc1ccnc2c(C(F)(F)F)cccc12)Nc1ccc(-c2ccc(S(=O)(=O)Nc3nccs3)cc2)cc1 [Compound 4, N-[4′-(Thiazol-2-ylsulfamoyl)-biphenyl-4-yl]-2-(8-trifluoromethyl-quinolin-4-yloxy)-acetamide]
IC50 [1, 2]: > 5000 nM

NC1=N[C@H](O)[C@H]2[C@H]3O[C@]4(O)O[C@@H]([C@@H](O)[C@@]2(N1)[C@@H]4O)[C@]3(O)CO [TTX, tetrodotoxin]
IC50 (NaV1.9): 1000 nM
IC50 (NaV1.1): 10 nM
IC50 (NaV1.6): 6 nM
IC50 (NaV1.8): > 50000 nM
IC50 (NaV1.3): 15 nM

C[C@@H](C(=O)Nc1ccc(-c2ccc(S(=O)(=O)Nc3nccs3)cc2)cc1)n1ccc2c(F)cccc21 [Compound 6, (S)-2-(4-Fluoro-indol-1-yl)-N-[4′-(thiazol-2-ylsulfamoyl)-biphenyl-4-yl]-propionamide]
IC50 [1, 2]: < 1000 nM

O=C(COc1ccc(Cl)cc1)Nc1ccc(-c2ccc(S(=O)(=O)Nc3nccs3)cc2)cc1 [Compound 1]
IC50 [1, 2]: 1000 to 5000 nM

COc1cccc(CC(=O)Nc2ccc(-c3ccc(S(=O)(=O)Nc4nccs4)cc3)cc2)c1 [Compound 2]
IC50 [1]: > 5000 nM
